# Assay results from patent US11672788B2, “Histone deacetylase inhibitors for immunomodulation in tumor microenvironment” (GREAT NOVEL THERAPEUTICS BIOTECH & MEDICALS CORPORATION, priority 2020, dated 2023).
# Columns and labels:
# SW48 cells [1] = experiment: Cell apoptosis (sub-G1) by PI flow cytometry; assay type: cell-based, human; conditions: 72 h; for Induction of apoptosis: SW48, indicated doses (Table 13)
# Experimental: (§1) A PI/RNase staining assay (BD Bioscience™) was performed to reveal the presence of cell cycle arrest and apoptotic cells after treatment with GNTbm compounds, Chidamide and Entinostat. […] After treatment cells were harvested, fixed with 80% ethanol for 24 h, washed with 1×PBS and stained with PI/RNase for 15 min at room temperature. The cells were then analyzed using Flow Cytometer within 1 h.
# NCI-N87 = experiment: In vitro cytotoxicity MTT assay; assay type: cell-based; conditions: Homo sapiens, 72 h, IC50 ± SD
# Experimental: (§2) Six different cell lines were used, including human breast cancer cell line MDA-MB-231 (6×10^3), MDA-MB-453 (2.4×10^4), SK-BR-3 (6×10^3), human breast epithelial cell line M10 (6×10^3), human gastric carcinoma NCI-N87 (2.4×10^4), and human colorectal adenocarcinoma SW48 (2.4×10^4), and seeded in a 96 well plate. Cell lines were obtained from Bioresource Collection and Research Center, BCRC, Taiwan. […] After 72 h, MTT assay (Cayman™) was used to determine the cellular viability.
# HDAC2 = HDAC2 (Homo sapiens (Human), UniProt Q92769); experiment: HDACs 1, 2, and 3 enzymatic inhibition (fluorogenic kit, 1 h); assay type: biochemical; conditions: 37° C.
# Experimental: (§3) HDACs assay was performed according to standard Protocols (Fluorgenic HDACs 1, 2, and 3 assay kit, BPS Bioscience™). […] After 1 h, assay developer was added to the samples and the absorbance was read at fluorogenic wavelength. The relative inhibition to HDACs 1, 2, and 3 activities in each sample was determined.
# HDAC1 = HDAC1 (Homo sapiens (Human), UniProt Q13547); experiment: as above; assay type: biochemical; conditions: 37° C.
# Experimental: as §3
# HDAC3 = HDAC3 (Homo sapiens (Human), UniProt O15379); experiment: as above; assay type: biochemical; conditions: 37° C.
# Experimental: as §3
# SW48 = experiment: In vitro cytotoxicity MTT assay; assay type: cell-based, human; conditions: Homo sapiens, SW48, 72 h, IC50 ± SD
# Experimental: as §2
# MDA-MB-231 = experiment: In vitro cytotoxicity MTT assay; assay type: cell-based, human; conditions: Homo sapiens, MDA-MB-231, 72 h, IC50 ± SD
# Experimental: as §2
# M10 = experiment: In vitro cytotoxicity MTT assay; assay type: cell-based, human; conditions: Homo sapiens, M10, 72 h, IC50 ± SD
# Experimental: as §2
# MDA-MB-453 = experiment: In vitro cytotoxicity MTT assay; assay type: cell-based, human; conditions: Homo sapiens, MDA-MB-453, 72 h, IC50 ± SD
# Experimental: as §2
# [2] = test system: histone H3 acetylation (AcH3) in SW48 cells; experiment: Western blot of histone H3 acetylation; assay type: cell-based, human; conditions: SW48, 24 h, FIG. 12c
# Experimental: Human breast cancer MDA-MB-231 cells and human colorectal adenocarcinoma SW48 cells were analyzed. MDA-MB-231 and SW48 were obtained from Bioresource Collection and Research Center (BCRC, Taiwan). MDA-MB-231 and SW48 were grown at 37° C. under humidified air supplemented without CO2 in Leibovitz's L-15 (cat. #11415114, Thermo Fisher Scientific) containing 10% heat inactivated fetal calf serum (Thermo Scientific), 1× concentration of MycoZap antibiotics (cat. #VZA-2011, Lonza). Cells were treated with GNTbm compounds series, Chidamide or Entinostat for different time periods or at varied doses. Cells were treated with indicated doses for 24 h or cells were treated with indicated doses for different time periods. Cell pellets were dissolved with RIPA buffer (cat. #20-188, Merck) with protease and phosphatase inhibitors (cat. #K272, BioVision) and clarified by centrifugation. Equal amounts of total protein were resolved by SDS-PAGE and transferred to polyvinylidene fluoride membranes (cat. #1620177, BIO-RAD). Blots were incubated with primary antibodies against β-actin (cat. #sc-47778, Santa Cruz Biotechnology), Histone 3ac (cat. #61637, Active Motif), and HRP secondary antibodies anti-rabbit (ab6721, Abcam) and anti-mouse (sc-2005, Santa Cruz). Blots were developed using the ECL Western Blotting Substrate (cat. #sc-2048, Santa Cruz Biotechnology) Image blots were analyzed with the iBright FL1000 (Thermo Fisher Scientific) imaging systems.
# SW48 cells [3] = experiment: Cell cycle arrest by PI flow cytometry; assay type: cell-based, human; conditions: for Percentage of Cell Cycle Distribution G0/G1 / Percentage of Cell Cycle Distribution G2/M / Percentage of Cell Cycle Distribution S: 72 h; for Cell cycle arrest: SW48, doses of Table 12
# Experimental: as §1
# Saturation solubility = assay type: physicochemical; conditions: ddH2O, 25° C., 90 minutes; mean ± SD; BDL: Below detection limit
# Experimental: Samples of 5 mg of compounds were added to 5 ml volumetric flasks containing ddH2O and shaken at 100 rpm in an incubator at 25° C. for 90 minutes. The resulting suspension was filtered through a 0.22 μm filter. The concentrations of compounds were determined spectrophotometrically at 256 nm. The saturation solubility of each sample was determined in triplicates and the mean value and standard deviation were reported.
# Sequence of HDAC3 (O15379 whole entry): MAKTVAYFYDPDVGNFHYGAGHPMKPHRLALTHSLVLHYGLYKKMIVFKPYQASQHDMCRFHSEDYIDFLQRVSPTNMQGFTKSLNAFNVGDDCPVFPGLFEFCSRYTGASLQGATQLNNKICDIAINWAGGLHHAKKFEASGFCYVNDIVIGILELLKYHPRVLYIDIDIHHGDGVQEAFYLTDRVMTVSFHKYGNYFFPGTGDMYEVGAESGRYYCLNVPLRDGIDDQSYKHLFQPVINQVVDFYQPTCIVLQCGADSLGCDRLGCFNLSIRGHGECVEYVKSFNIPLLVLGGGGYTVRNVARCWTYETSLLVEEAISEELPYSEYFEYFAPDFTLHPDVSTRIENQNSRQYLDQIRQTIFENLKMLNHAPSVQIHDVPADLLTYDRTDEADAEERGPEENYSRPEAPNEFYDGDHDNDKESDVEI
# Sequence of HDAC3 (Q9Y618 395-489 partner): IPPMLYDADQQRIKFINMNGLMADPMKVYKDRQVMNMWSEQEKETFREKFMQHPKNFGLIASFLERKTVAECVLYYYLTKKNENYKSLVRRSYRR
# Sequence of HDAC1 (Q13547 whole entry): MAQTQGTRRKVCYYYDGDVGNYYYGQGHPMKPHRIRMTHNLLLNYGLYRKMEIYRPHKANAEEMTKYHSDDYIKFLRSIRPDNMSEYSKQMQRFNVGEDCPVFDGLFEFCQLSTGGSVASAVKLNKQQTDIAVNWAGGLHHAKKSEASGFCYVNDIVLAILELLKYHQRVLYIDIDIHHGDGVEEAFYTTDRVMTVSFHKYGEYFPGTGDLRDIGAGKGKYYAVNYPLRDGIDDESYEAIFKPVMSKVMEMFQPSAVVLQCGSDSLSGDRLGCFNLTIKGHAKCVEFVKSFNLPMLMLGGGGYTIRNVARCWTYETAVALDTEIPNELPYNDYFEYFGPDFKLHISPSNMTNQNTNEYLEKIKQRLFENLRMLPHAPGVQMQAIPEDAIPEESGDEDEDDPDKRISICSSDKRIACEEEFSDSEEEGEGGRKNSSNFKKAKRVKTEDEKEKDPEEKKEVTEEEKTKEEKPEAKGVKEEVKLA
# Sequence of HDAC2 (Q92769 whole entry): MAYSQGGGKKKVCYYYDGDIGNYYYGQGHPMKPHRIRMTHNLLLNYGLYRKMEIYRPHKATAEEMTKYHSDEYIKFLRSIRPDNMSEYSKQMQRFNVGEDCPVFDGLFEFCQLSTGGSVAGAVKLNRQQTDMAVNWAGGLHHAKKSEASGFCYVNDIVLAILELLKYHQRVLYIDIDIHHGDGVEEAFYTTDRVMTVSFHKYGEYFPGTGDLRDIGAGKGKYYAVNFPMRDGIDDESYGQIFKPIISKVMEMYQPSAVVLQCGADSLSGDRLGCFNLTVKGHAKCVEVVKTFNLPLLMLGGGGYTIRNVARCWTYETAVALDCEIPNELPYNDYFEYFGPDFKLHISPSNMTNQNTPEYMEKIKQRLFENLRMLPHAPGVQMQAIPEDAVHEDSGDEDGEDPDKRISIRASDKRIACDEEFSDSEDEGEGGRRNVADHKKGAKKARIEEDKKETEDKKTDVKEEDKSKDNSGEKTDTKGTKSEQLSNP
IC50 (HDAC2) [nM],IC50 (HDAC1) [nM],IC50 (HDAC3) [nM],SMILES,IC50 (NCI-N87) [nM],IC50 (SW48) [nM],IC50 (MDA-MB-231) [nM],IC50 (M10) [nM],IC50 (MDA-MB-453) [nM],further results
360 ± 20,140 ± 2,1 ± 0.04,"Nc1ccccc1NC(=O)c1ccc(NC(=O)C/C=C/c2cccnc2)cn1 [GNTbm-05, 5-((E)-4-(pyridin-3-yl)but-3-enamido)-N-(2-aminophenyl)pyridine-2-carboxamide]",280 ± 10,1640 ± 20,1660 ± 20,430 ± 30,1580 ± 3,"Percentages of Cell Apoptosis (SW48 cells [1]; SW48, 0.125 μM): 9.0%; Percentages of Cell Apoptosis (SW48 cells [1]; SW48, 0.5 μM): 17.9%; Percentages of Cell Apoptosis (SW48 cells [1]; SW48, 1 μM): 27.2%; Percentages of Cell Apoptosis (SW48 cells [1]; SW48, 2 μM): 42.4%; Induction of apoptosis (SW48 cells [1]): potent in inducing apoptosis in SW48 cells; Histone 3 acetylation expression versus Chidamide [2]: more potent in inducing the histone 3 acetylation expression in SW48 cells than Chidamide; Percentage of Cell Cycle Distribution G0/G1 (SW48 cells [3]; SW48, 0.125 μM): 61.5%; Percentage of Cell Cycle Distribution G2/M (SW48 cells [3]; SW48, 0.125 μM): 18.7%; Percentage of Cell Cycle Distribution S (SW48 cells [3]; SW48, 0.125 μM): 19.8%; Percentage of Cell Cycle Distribution G0/G1 (SW48 cells [3]; SW48, 0.5 μM): 59.2%; Percentage of Cell Cycle Distribution G2/M (SW48 cells [3]; SW48, 0.5 μM): 22.2%; Percentage of Cell Cycle Distribution S (SW48 cells [3]; SW48, 0.5 μM): 18.6%; Percentage of Cell Cycle Distribution G0/G1 (SW48 cells [3]; SW48, 1 μM): 55.4%; Percentage of Cell Cycle Distribution G2/M (SW48 cells [3]; SW48, 1 μM): 31.8%; Percentage of Cell Cycle Distribution S (SW48 cells [3]; SW48, 1 μM): 12.8%; Percentage of Cell Cycle Distribution G0/G1 (SW48 cells [3]; SW48, 2 μM): 53.6%; Percentage of Cell Cycle Distribution G2/M (SW48 cells [3]; SW48, 2 μM): 34.6%; Percentage of Cell Cycle Distribution S (SW48 cells [3]; SW48, 2 μM): 11.8%; Cell cycle arrest (SW48 cells [3]): significantly induced cell cycle arrest in the G2/M phase in SW48 cells"
390 ± 20,100 ± 20,9 ± 10,"Cc1ccc(/C=C/CC(=O)Nc2ccc(C(=O)Nc3ccccc3N)nc2)cn1 [GNTbm-06, 5-((E)-4-(6-methylpyridin-3-yl)but-3-enamido)-N-(2-aminophenyl)pyridine-2-carboxamide]",2200 ± 30,2320 ± 80,3870 ± 700,1950 ± 30,1590 ± 10,Saturation Solubility (Saturation solubility): BDL
1540 ± 280,370 ± 310,1 ± 0.02,"Cc1ccc(CCCC(=O)Nc2ccc(C(=O)Nc3ccc(F)cc3N)nc2)cn1 [GNTbm-08, 5-(4-(6-methylpyridin-3-yl)butanamido)-N-(2-amino-4-fluorophenyl)pyridine-2-carboxamide]",15500 ± 1700,18400 ± 1000,> 50000,20800 ± 140,3780 ± 500,
> 20000,> 20000,1,"Nc1cc(C(F)(F)F)ccc1NC(=O)c1ccc(NC(=O)C/C=C/c2cccnc2)cn1 [GNTbm-11, 5-((E)-4-(pyridin-3-yl)but-3-enamido)-N-(2-amino-4-(trifluoromethyl)phenyl)pyridine-2-carboxamide]",1870 ± 40,2600 ± 450,1710 ± 40,1650 ± 200,2280 ± 60,
> 20000,> 20000,> 20000,"Cc1ccc(/C=C/CC(=O)Nc2ccc(C(=O)Nc3ccc(C(F)(F)F)cc3N)nc2)cn1 [GNTbm-12, 5-((E)-4-(6-methylpyridin-3-yl)but-3-enamido)-N-(2-amino-4-(trifluoromethyl)phenyl)pyridine-2-carboxamide]",> 50000,> 50000,> 50000,38500 ± 5900,15800 ± 3900,
1420 ± 190,480 ± 30,2980 ± 80,"Cc1ccc(CCCC(=O)Nc2ccc(C(=O)Nc3ccccc3N)nc2)cn1 [GNTbm-19, 5-(4-(6-methylpyridin-3-yl)butanamido)-N-(2-aminophenyl)pyridine-2-carboxamide]",4300 ± 1400,8730 ± 240,5690 ± 1700,2890 ± 120,1810 ± 20,
> 20000,> 20000,> 20000,"Cc1ccc(CCCC(=O)Nc2ccc(C(=O)Nc3ccc(C(F)(F)F)cc3N)nc2)cn1 [GNTbm-25, 5-(4-(6-methylpyridin-3-yl)butanamido)-N-(2-amino-4-(trifluoromethyl)phenyl)pyridine-2-carboxamide]",> 50000,> 50000,> 50000,> 50000,19100 ± 2070,
> 20000,> 20000,> 20000,"Nc1cc(C(F)(F)F)ccc1NC(=O)c1ccc(NC(=O)C/C=C/c2cccnc2)cc1 [GNTbm-33, 4-((E)-4-(pyridin-3-yl)but-3-enamido)-N-(2-amino-4-(trifluoromethyl)phenyl)benzamide]",1750 ± 20,1790 ± 30,1620 ± 20,2010 ± 90,1940 ± 220,
3150 ± 310,9040 ± 600,1740 ± 290,"Nc1cc(F)ccc1NC(=O)c1ccc(NC(=O)CCCc2cccnc2)cc1 [GNTbm-37, 4-(4-(pyridin-3-yl)butanamido)-N-(2-amino-4-fluorophenyl)benzamide]",10600 ± 600,21300 ± 1640,8070 ± 540,8850 ± 590,4890 ± 340,
280 ± 10,690 ± 30,1200 ± 10,"Nc1ccccc1NC(=O)c1ccc(NC(=O)C/C=C/c2cccnc2)cc1 [GNTbm-38, 4-((E)-4-(pyridin-3-yl)but-3-enamido)-N-(2-aminophenyl)benzamide]",420 ± 80,1640 ± 5,3550 ± 450,1990 ± 60,1670 ± 10,"Percentages of Cell Apoptosis (SW48 cells [1]; SW48, 0.125 μM): 8.5%; Percentages of Cell Apoptosis (SW48 cells [1]; SW48, 0.5 μM): 18.3%; Percentages of Cell Apoptosis (SW48 cells [1]; SW48, 1 μM): 24.4%; Percentages of Cell Apoptosis (SW48 cells [1]; SW48, 2 μM): 37.3%; Induction of apoptosis (SW48 cells [1]): potent in inducing apoptosis in SW48 cells; Histone 3 acetylation expression versus Chidamide [2]: more potent in inducing the histone 3 acetylation expression in SW48 cells than Chidamide; Percentage of Cell Cycle Distribution G0/G1 (SW48 cells [3]; SW48, 0.125 μM): 63.3%; Percentage of Cell Cycle Distribution G2/M (SW48 cells [3]; SW48, 0.125 μM): 17.4%; Percentage of Cell Cycle Distribution S (SW48 cells [3]; SW48, 0.125 μM): 19.3%; Percentage of Cell Cycle Distribution G0/G1 (SW48 cells [3]; SW48, 0.5 μM): 61.8%; Percentage of Cell Cycle Distribution G2/M (SW48 cells [3]; SW48, 0.5 μM): 27.8%; Percentage of Cell Cycle Distribution S (SW48 cells [3]; SW48, 0.5 μM): 10.4%; Percentage of Cell Cycle Distribution G0/G1 (SW48 cells [3]; SW48, 1 μM): 57.7%; Percentage of Cell Cycle Distribution G2/M (SW48 cells [3]; SW48, 1 μM): 29.8%; Percentage of Cell Cycle Distribution S (SW48 cells [3]; SW48, 1 μM): 12.5%; Percentage of Cell Cycle Distribution G0/G1 (SW48 cells [3]; SW48, 2 μM): 53.9%; Percentage of Cell Cycle Distribution G2/M (SW48 cells [3]; SW48, 2 μM): 32.5%; Percentage of Cell Cycle Distribution S (SW48 cells [3]; SW48, 2 μM): 13.6%; Cell cycle arrest (SW48 cells [3]): significantly induced cell cycle arrest in the G2/M phase in SW48 cells"
